# Results from patent US20140271667A1, “Methods and Compositions for Neoadjuvant Therapy” (The Wistar Institute of Anatomy and Biology, priority 2013, published 2014).
# How the values were obtained:
# Type in all cases: cell-based, human
# [1] = tested on: Raptor; test: Western blotting, Raptor phosphorylation; details: PC3; Gamitrinib 5 μM, metformin 5 mM 6 h, 17-AAG 5 μM
# Experimental: (§1) Protein lysates were prepared in RIPA buffer containing 150 mM NaCl, 1.0% Triton X-100, 0.5% sodium deoxycholate, 0.1% SDS, 50 mM Tris, pH 8.0, in the presence of EDTA-free protease inhibitor cocktail (Roche) and phosphatase inhibitor cocktail 2 and 3 (Sigma Aldrich). Equal amounts of protein lysates were separated by SDS gel electrophoresis, transferred to PVDF membranes and incubated with primary antibodies of various specificities. Protein bands were detected by chemiluminescence, as described (21).
# [2] = tested on: LN229 cells; test: Galactose challenge cell viability; details: Gamitrinib 5 μM
# Experimental: Human glioblastoma LN229, prostate adenocarcinoma PC3 and PC3-ML subline, lung adenocarcinoma H1299, H1437, H460 and A549, breast adenocarcinoma MDA-MB-231, melanoma 1205Lu and WM793, or normal NIH3T3 and MRC-5 fibroblasts were obtained from the American Tissue Culture Collection (ATCC), and maintained in culture according to the supplier's specifications. For metabolic stress experiments, cells were incubated in MEM-based media containing glucose, essential and non-essential amino acids and vitamins in identical concentration as DMEM, plus 4 mM L-glutamine, 1 mM sodium pyruvate, 10 mM HEPES, and 10% 10 K dialyzed FBS (Gibco). Three conditions were tested: 25 mM glucose (complete medium), 5 mM glucose or 50% amino acid deprivation compared to DMEM. […]
# Tumor cells were plated onto 96-well plates at 3.7×10^3/well and treated with vehicle or Gamitrinib (5 μM). After 24 h, cell viability was assessed with a 3 (4,5-dimethyl-thyazoyl-2-yl)2,5 diphenyltetrazolium bromide (MTT) colorimetric assay (24), or, alternatively, by Trypan blue exclusion and light microscopy. […] In some experiments, tumor cell proliferation was assessed by direct cell counting and light microscopy.
# [3] = tested on: FIP200; test: FIP200 phosphoisotypes, phosphate-affinity SDS gel mobility shift; details: PC3; Gamitrinib 5 μM
# Experimental: Analysis of phosphoisotypes was carried out by standard phosphate-affinity SDS gel electrophoresis, using a mobility shift protocol (56). Briefly, proteins were separated by electrophoresis on 3% polyacrylamide/0.5% SeaKem Gold Agarose (Lonza) gels containing the dinuclear metal complex Mn2+-Phos-tag (Acrylamide-pendant Phos-tag, Wako Chemicals). After removal of Mn2+ by washing the gels in blotting buffer containing 1 mM EDTA, proteins were transferred to PVDF membranes and detected by Western blotting using antibodies to FIP200 or pan-phosphorylated Ser residues.
# [4] = tested on: Focal Adhesion Kinase (FAK); test: Western blotting, FAK phosphorylation; details: tumor cells (PC3); Gamitrinib 5 μM, CCCP 12.5 μM, rapamycin 0.1 μM
# Experimental: as §1
# [5] = tested on: ULK1; test: Western blotting, ULK1 phosphorylation and level; details: PC3
# Experimental: as §1
substance,measurement,setting,value
Gamitrinib,Raptor phosphorylation on Ser792,[1],induced strong phosphorylation
same,tumor cell viability in 100% galactose,[2]; 0% Glc-100% Gal,nearly complete tumor cell death
same,tumor cell viability in glucose or 50% galactose,[2]; 100% glucose or 50% Glc-50% Gal,did not significantly reduce tumor cell viability
same,FIP200 gel mobility (phosphorylation),[3],"gel mobility retardation, suggestive of increased phosphorylation"
same,FAK phosphorylation on Tyr397 and Tyr925,[4],loss of phosphorylation
same,ULK1 phosphorylation on Ser555,"[5]; Gamitrinib 5 μM (within 1-2 h), metformin 5 mM 6 h, 17-AAG 5 μM",phosphorylation of ULK1 on Ser555
same,ULK1 phosphorylation on Ser757,"[5]; Gamitrinib 5 μM, metformin 5 mM 6 h, 17-AAG 5 μM",decreased phosphorylation on Ser757
same,total level of ULK1,[5]; time points of the Western blot experiment,not affected
